According to EP0086092A2, “Antifungal compositions” (priority 1982, dated 1983):

What was measured:
C. albicans = assay: topical treatment of C. albicans skin infections of mice; format: in vivo; conditions: female CF-1 mice, shaved back skin infected with clinical isolates; topical treatment for 5 days; aculeacin A at its MIC for each isolate; compared with aculeacin A itself, Lotrimin cream and control
Protocol: Clinical isolates of C. albicans were grown in Sabouarud dextrose agar and subcultured into mouse serum and incubated at 35 C. Female mice (CF-1, 4 to 6 weeks old) were shaved on the back (2cm ^2 area).
The shaved area was cleaned with 70%'alcohol and scrubbed with a wire brush. This area was then painted with the C. albicans in mouse serum as noted above (10^5-10^6 CFu/ml.) and after drying this area was covered with sterile gauze and the infection was allowed to develop over two days. After the development of the infection, the mice were treated with aculeacin A/oleic acid composition, aculeacin A and Lotrimin^R (Clotrimazole-Schering) for 5 days. The minimum inhibitory concentration (MIC) for aculeacin A for each clinical isolate of C. albicans was determined and that amount was employed in each experiment. Commercially available Lotrimin^R cream was utilized in each experiment. […] Note that bacterial contamination was ruled out by microscopic examination. • [formula] where 4 - the most severe infection - zone of inoculation highly erythrematous with culture mainly consisting of C. albicans. • 3 - severe infection with some healing • 2 - less severe infection • 1 - very little infection • 0 - no infection.

Candida albicans BC 759 = assay: disc diffusion, zone of inhibition on seeded agar plates; format: cell-based; conditions: Table IV-a, 16-18 h, 28-37°C
Protocol: (§1) The antifungal activity of aculeacin A and the compositions of aculeacin A and fatty acids was measured by disc diffusion. Potentiation of antifungal activity was examined by three different methods employing: (1) a single concentration of aculeacin A and a single concentration of known fatty acids; '(2) various concentrations of aculeacin A with a single concentration of individual fatty acids; and (3) various concentrations of fatty acids with a single concentration of aculeacin A. The antifungal activities of aculeacin A and the fatty acids were separately checked as controls.
(§2) The antifungal effects of compositions containing a single amount of aculeacin A while varying the amounts. of oleic acid as the sodium salt were determined by utilizing seeded plates of Candida albicans strains B 311, BC 759 and B 3153A and measuring the zone of inhibition after 16-18 hours at 28-37°C. This test was also performed with linoleic acid and linolenic acid.
(§3) The seeded plates of Candida albicans strains B 311, BC 759, and B 3153A were prepared by inoculating 50 ml of trypticase soy broth (BBL) with one ml of the preserved frozen culture and incubating the inoculum at 37°C for 7 hours on a rotary shaker. Two milliliters of this culture were used to inoculate one liter of Sabouarud dextrose agar (Difco) at 50°C and 15 milliliters of the resultant medium poured into 150 mm petri-dishes.

Candida albicans B 3153A = assay: as above; format: cell-based; conditions: Table IV-a, 16-18 h, 28-37°C
Protocol: as §1, §2, §3

Candida albicans B 311 = assay: as above; format: cell-based; conditions: 16-18 h; for Zone Size / Zone Size B 311: 28-37°C; for Zone Size Sabouarud Agar / Zone Size YNB agar: Table II, 37°C; for Zone Size YNB agar: lysine; for Zone Size B 311: Table IV-a
Protocol: The antifungal activity of aculeacin A and the compositions of aculeacin A and fatty acids was measured by disc diffusion.
The effects of a number of fatty acids on the antifungal activity of aculeacin A were determined by utilizing seeded plates of Candida albicans B 311 in yeast nitrogen base (YNB) agar (Difco) with glucose as the carbon source. A composition containing one unit by weight of aculeacin A and 5 units of fatty acid or the sodium salt thereof was spotted on the seeded plates and the size of the zone of inhibition after 16-18 hours incubation at 28-37 °C was measured.
Additional fatty acids were tested to determine , if they increased the intrinsic activity of aculeacin A against C. albicans B 311 utilizing seeded plates of YNB agar (Difco) with lysine as the carbon source and seeded plates of Sabouarud dextrose agar (Difco). Compositions containg one µg of aculeacin A and various amounts of the fatty acid was spotted on the seeded plates and the size of the zone of inhibition after 16-18 hours incubation at 37 °C was measured.
The antifungal effects of compositions containing a single amount of oleic acid as the sodium salt while varying the amounts of aculeacin A were determined by utilizing seeded plates of Candida albicans B 311 in Sabouarud dextrose agar and measuring the zone of inhibition after 16-18 hours incubation at 28-37°C.
as §2, §3

[1] = aculeacin A 0.40 µg + oleic acid (as sodium salt) 5 µg
[2] = aculeacin A 0.40 µg + oleic acid (as sodium salt) 10 µg
[3] = aculeacin A 0.40 µg + oleic acid (as sodium salt) 20 µg
[4] = aculeacin A 0.40 µg + oleic acid (as sodium salt) 40 µg
[5] = aculeacin A 0.40 µg + oleic acid (as sodium salt) 78 µg
[6] = aculeacin A 0.40 µg + oleic acid (as sodium salt) 156 µg
[7] = aculeacin A 0.40 µg + oleic acid (as sodium salt) 312 µg
[8] = aculeacin A 0.40 µg + oleic acid (as sodium salt) 625 µg
[9] = aculeacin A 0.40 µg + oleic acid (as sodium salt) 1250 µg

## CCCCCCCC/C=C\CCCCCCCC(=O)O [Oleic Acid]
C. albicans
  reduction in the infection: did not inhibit the infection
Candida albicans BC 759; [1]
  Zone Size BC 759: 13 mm
Candida albicans BC 759; [2]
  Zone Size BC 759: 15 mm
Candida albicans BC 759; [3]
  Zone Size BC 759: 18 mm
Candida albicans BC 759; [4]
  Zone Size BC 759: 18 mm
Candida albicans BC 759; [5]
  Zone Size BC 759: 20 mm
Candida albicans BC 759; [6]
  Zone Size BC 759: 24 mm
Candida albicans BC 759; [7]
  Zone Size BC 759: 28 mm
Candida albicans BC 759; [8]
  Zone Size BC 759: 29 mm
Candida albicans BC 759; [9]
  Zone Size BC 759: 32 mm
Candida albicans B 3153A; [1]
  Zone Size B 3153-A: 13 mm
Candida albicans B 3153A; [2]
  Zone Size B 3153-A: 15 mm
Candida albicans B 3153A; [3]
  Zone Size B 3153-A: 18 mm
Candida albicans B 3153A; [4]
  Zone Size B 3153-A: 17 mm
Candida albicans B 3153A; [5]
  Zone Size B 3153-A: 18 mm
Candida albicans B 3153A; [6]
  Zone Size B 3153-A: 25 mm
Candida albicans B 3153A; [7]
  Zone Size B 3153-A: 25 mm
Candida albicans B 3153A; [8]
  Zone Size B 3153-A: 28 mm
Candida albicans B 3153A; [9]
  Zone Size B 3153-A: 29 mm
Candida albicans B 311; Table I, YNB agar, glucose as carbon source, composition of 1 unit by weight aculeacin A + 5 units fatty acid
  Zone Size: 32 mm
Candida albicans B 311; Sabouarud dextrose agar, aculeacin A 0 µg, fatty acid 250 µg alone
  Zone Size Sabouarud Agar: 0 mm
Candida albicans B 311; Sabouarud dextrose agar, aculeacin A 0 µg, fatty acid 500 µg alone
  Zone Size Sabouarud Agar: 0 mm
Candida albicans B 311; Sabouarud dextrose agar, aculeacin A 0 µg, fatty acid 1000 µg alone
  Zone Size Sabouarud Agar: 0 mm
Candida albicans B 311; Sabouarud dextrose agar, composition of aculeacin A 1 µg + fatty acid 250 µg
  Zone Size Sabouarud Agar: 28 mm
Candida albicans B 311; Sabouarud dextrose agar, composition of aculeacin A 1 µg + fatty acid 500 µg
  Zone Size Sabouarud Agar: 26 mm
Candida albicans B 311; Sabouarud dextrose agar, composition of aculeacin A 1 µg + fatty acid 1000 µg
  Zone Size Sabouarud Agar: 26 mm
Candida albicans B 311; YNB agar, aculeacin A 0 µg, fatty acid 250 µg alone
  Zone Size YNB agar: 0 mm
Candida albicans B 311; YNB agar, aculeacin A 0 µg, fatty acid 500 µg alone
  Zone Size YNB agar: 0 mm
Candida albicans B 311; YNB agar, aculeacin A 0 µg, fatty acid 1000 µg alone
  Zone Size YNB agar: 0 mm
Candida albicans B 311; YNB agar, composition of aculeacin A 1 µg + fatty acid 250 µg
  Zone Size YNB agar: 35 mm
Candida albicans B 311; YNB agar, composition of aculeacin A 1 µg + fatty acid 500 µg
  Zone Size YNB agar: 35 mm
Candida albicans B 311; YNB agar, composition of aculeacin A 1 µg + fatty acid 1000 µg
  Zone Size YNB agar: 35 mm
Candida albicans B 311; Table III, Sabouarud dextrose agar, aculeacin A 0.000 µg, oleic acid (as sodium salt) 12.5 µg alone
  Zone Size: 0 mm
Candida albicans B 311; Table III, Sabouarud dextrose agar, aculeacin A 0.020 µg + oleic acid (as sodium salt) 12.5 µg
  Zone Size: trace
Candida albicans B 311; Table III, Sabouarud dextrose agar, aculeacin A 0.039 µg + oleic acid (as sodium salt) 12.5 µg
  Zone Size: 28 mm
Candida albicans B 311; Table III, Sabouarud dextrose agar, aculeacin A 0.078 µg + oleic acid (as sodium salt) 12.5 µg
  Zone Size: 29 mm
Candida albicans B 311; Table III, Sabouarud dextrose agar, aculeacin A 0.156 µg + oleic acid (as sodium salt) 12.5 µg
  Zone Size: 32 mm
Candida albicans B 311; Table III, Sabouarud dextrose agar, aculeacin A 0.312 µg + oleic acid (as sodium salt) 12.5 µg
  Zone Size: 35 mm
Candida albicans B 311; Table III, Sabouarud dextrose agar, aculeacin A 0.625 µg + oleic acid (as sodium salt) 12.5 µg
  Zone Size: 35 mm
Candida albicans B 311; Table III, Sabouarud dextrose agar, aculeacin A 1.25 µg + oleic acid (as sodium salt) 12.5 µg
  Zone Size: 37 mm
Candida albicans B 311; [1]
  Zone Size B 311: 13 mm
Candida albicans B 311; [2]
  Zone Size B 311: 14 mm
Candida albicans B 311; [3]
  Zone Size B 311: 15 mm
Candida albicans B 311; [4]
  Zone Size B 311: 17 mm
Candida albicans B 311; [5]
  Zone Size B 311: 20 mm
Candida albicans B 311; [6]
  Zone Size B 311: 26 mm
Candida albicans B 311; [7]
  Zone Size B 311: 30 mm
Candida albicans B 311; [8]
  Zone Size B 311: 32 mm
Candida albicans B 311; [9]
  Zone Size B 311: 35 mm
